Here are results for eleven molecules from doi:10.1101/2025.08.06.668955, “High-Affinity, Structure-Validated and Selective Macrocyclic Peptide Tools for Chemical Biology Studies of Huntingtin” (bioRxiv, 2025).

In test [1] the test system is endogenous HTT. Kind of test: Macrocycle precipitation (MP) of endogenous HTT from HEK293T cell extracts. It counts as binding, human. To be noted: HEK293 cell lysate, 2 mg protein, streptavidin beads conjugated at 1.25 μM macrocycle, 1 hour at 4°C. On the procedure:
To explore binding and selectivity within a more physiological context, we used biotinylated derivatives of macrocycles to affinity purify HTT from cellular extracts, which we term “macrocycle precipitations” (MPs)(Figure 5a). The macrocycles were joined to the biotin using either a 2 amino acid linker (AK-Bio) or a PEG11 spacer (PEG11-Bio) (Supplementary Figure 12a). Extracts were prepared from HEK293T cells, including HTT knock-out lines and streptavidin beads were used to attempt to capture macrocycle–HTT complexes, and potentially associated binding partners.
(§1) Macrocycles were pre-conjugated to streptavidin beads (Cytiva, 17-5113-01) by incubating with a 30 μL slurry of beads per macrocycle purification (MP) in Lysis Buffer (10 mM Tris-HCl, pH 7.9, 150 mM NaCl, 0.1% NP-40, 1:500 protease inhibitor cocktail (Sigma-Aldrich), 1:1,000 benzonase nuclease, and 2 mM MgCl2) for 1 hour at 4°C. A concentration of 1.25 μM macrocycle was used for conjugation. After incubation, beads were washed three times with 500 μL Lysis Buffer to remove unbound macrocycles and resuspended in 500 μL of lysate at 4 mg/mL protein concentration.
(§2) Cells were harvested by centrifugation at 1,500 rpm for 5 minutes, washed twice with PBS, and snap-frozen. Cell pellets were then resuspended in 500 μL of Lysis Buffer (as described above) and incubated on an end-over-end rotator at 4°C for 1 hour. Lysates were clarified by centrifugation at 20,000g for 15 minutes at 4°C, and the supernatant was transferred to fresh 1.5 mL Eppendorf tubes. Protein concentration was determined by BCA assay (Thermo Fisher Scientific, 23225), yielding approximately 4 mg of protein on average. Lysates were diluted to a final concentration of 4 mg/mL for use, providing […] of total protein per MP.
(§3) Macrocycle-conjugated beads were incubated with 2 mg of lysate in Lysis Buffer for 1 hour at 4°C with rotation. After incubation, beads were collected by centrifugation at 3,000 rpm, and the flow-through was saved for analysis. Beads were then washed sequentially with 1 mL of Wash Buffer 1 (10 mM Tris-HCl, pH 7.9, 100 mM NaCl, 0.1% NP-40) and twice with Wash Buffer 2 (Wash Buffer 1 without detergent). Lastly, bound proteins were eluted from the beads with 200 μL of 0.5 M NH4OH and flash-frozen in liquid nitrogen.
All sample preparation, LC MS/MS data collection, and MS data searches were carried out at the SPARC BioCentre at The Hospital for Sick Children (Toronto, ON, Canada). Samples were reduced with DTT (10 mM, 60°C, 1 hour), alkylated with iodoacetamide (20 mM, room temperature, 45 min, dark), and digested overnight at 37°C with trypsin ([…]; Pierce). Peptides were dried by vacuum centrifugation, desalted on C18 ziptips (Millipore) using a DigestPro MSi (Intavis Bioanalytical Instruments), and dried again by vacuum centrifugation before resuspension in Buffer A (0.1% formic acid (v/v) in water). Samples were analyzed by liquid chromatography tandem mass spectrometry (LC-MS/MS) using an EASY-nanoLC 1200 system with a 1 h analysis and an Orbitrap Fusion™ Lumos™ Tribrid™ Mass Spectrometer (Thermo Fisher Scientific). The LC portion of the analysis consisted of a 18 min linear gradient running 3–20% of Buffer A to Buffer B (0.1% formic acid (v/v) in […]), followed by a 31 min linear gradient running 20–35% of Buffer A to Buffer B, a 2 min ramp to 100% Buffer B and 9 min hold at 100% Buffer B, all at a flow rate of 250 nL/min. Samples were loaded into a […] × 2 cm Acclaim PepMap 100 Pre-column followed by a 75 μm × 50 cm PepMax RSLC EASY-Spray analytical column filled with […] C18 beads (Thermo Fisher Scientific). MS1 acquisition resolution was set to 120000 with an automatic gain control (AGC) target value of 4 × 105 and maximum ion injection time (IT) of 50 ms for a scan range of m/z 375–1500, with dynamic exclusion set to 10 s. Isolation for MS2 scans was performed in the quadrupole with an isolation window of m/z 0.7. […]

Test [2] deals with T1, HTTQ23-HAP40 (Homo sapiens, UniProt P23610+P42858, INS38QQ).
T1 construct: Full-length wildtype HTT with a polyQ tract of 23 glutamines; FLAG; made in house; host or cells: Sf9 insect cells (baculovirus)
In words: Thermal shift assay (DSF), HTTQ23-HAP40. The test is classed as binding. The conditions noted are these: SYPRO Orange, 0.25 mg/mL protein, macrocycle up to 10 μM, 2.5% DMSO, n=3. On the procedure: In an Axygen® 384-well PCR microplate (REF# PCR-384-LC480-W-NF, Corning), samples were mixed to yield a final concentration of 0.25 mg/mL Q54 or Q23/HAP40, a 5-pt 2-fold serial dilution of each macrocycle (top concentration of 10 μM, 2.5% DMSO), and 5X SYPRO™ Orange (CAT# S6650, Thermo Fisher Scientific) in buffer (20 mM HEPES pH 7.4, 150 mM NaCl, 1 mM TCEP, 0.005% Tween-20). Differential Scanning Fluorimetry (DSF) was performed using a LightCycler® 480 (Roche LifeSciences) set to a 4 °C/min temperature ramp (20–95 °C) and fluorescence detection at 580 nm. Melting temperatures (Tm) were obtained from the minima of the negative derivative of each curve. The propagated error of the thermal shift (ΔTm) was calculated from the standard deviation of each Tm mean (n=3). To ensure a maximally macrocycle-bound fraction (KD ~10 nM; ~100% bound) at 0.25 mg/mL HTT or HTT-HAP40 (~0.7 μM), the upper limit of macrocycle tested was 10 μM.
98 Supplementary Figure. 10. Thermal shift (ΔTm) induced by macrocycle binding. Melting
99 temperature of HTTQ54 (left) with HL5 or HL2 minus HTTQ54 with DMSO (46.5 °C), and (right)
100 HTTQ23-HAP40 with HD4, HL2, HL5, HHD2, HHD3, or HHL1 minus HTTQ23-HAP40 with DMSO
101 (51.0 °C). ΔTm significance was determined using an unpaired t-test with Welch correction,
102 comparing to the mean Tm of Q54 or Q23-HAP40 with DMSO; *P < 0.05, **P < 0.01, ***P <
103 0.001. The summary table reports the ΔTm and exact P value at the highest concentration tested
(1 picture or pasted object on this page, not shown here)

Test [3] relates to HAP40. Kind of test: Macrocycle precipitation (MP), co-purification of HAP40, LC-MS/MS. It counts as binding, human. The conditions noted are these: HEK293T lysate versus HTT CRISPR knockout line.
Source text: To assess macrocycle selectivity and identify potential HTT interacting proteins, we performed LC-MS/MS analysis of the proteins in the MP eluates. To control for non-specific binding, we performed MPs using lysates from a HTT CRISPR knockout cell line ([Jung et al., 2021]). Across all macrocycles, HTT emerged as the most enriched protein after background subtraction (Figure 5b). Given we performed affinity purification using macrocycles targeting distinct HTT surfaces, we hypothesized that any real HTT protein binder might be co-purified with two or more macrocycles. […] In contrast, HAP40 was not enriched by HL5, consistent with its specificity for apo HTT.
as §1, §2, §3
All sample preparation, LC MS/MS data collection, and MS data searches were carried out at the SPARC BioCentre at The Hospital for Sick Children (Toronto, ON, Canada). […] Samples were analyzed by liquid chromatography tandem mass spectrometry (LC-MS/MS) using an EASY-nanoLC 1200 system with a 1 h analysis and an Orbitrap Fusion™ Lumos™ Tribrid™ Mass Spectrometer (Thermo Fisher Scientific). […]

Test [4] addresses C-terminally biotinylated HTTQ23 in complex with HAP40 (UniProt P23610 1-371, biotin on the C-terminal Avi-tag). In words: SPR.
Test [5] has as its target HTTQ54-HAP40 (UniProt P23610 1-371). Kind of test: FP.

Where a SMILES comes first, the peptide text is derived from it. Bridges are numbered along the chain shown (N, C = ends). Primed or numbered codes have the meaning given here. Where no end group is shown, it is not given here. [ ]: non-standard residue; d: D form. FITC′ = not defined here

Chain of HTTQ54-HAP40 (P42858 other isoform, or with tags, fused parts or gaps, chain 1 of 2): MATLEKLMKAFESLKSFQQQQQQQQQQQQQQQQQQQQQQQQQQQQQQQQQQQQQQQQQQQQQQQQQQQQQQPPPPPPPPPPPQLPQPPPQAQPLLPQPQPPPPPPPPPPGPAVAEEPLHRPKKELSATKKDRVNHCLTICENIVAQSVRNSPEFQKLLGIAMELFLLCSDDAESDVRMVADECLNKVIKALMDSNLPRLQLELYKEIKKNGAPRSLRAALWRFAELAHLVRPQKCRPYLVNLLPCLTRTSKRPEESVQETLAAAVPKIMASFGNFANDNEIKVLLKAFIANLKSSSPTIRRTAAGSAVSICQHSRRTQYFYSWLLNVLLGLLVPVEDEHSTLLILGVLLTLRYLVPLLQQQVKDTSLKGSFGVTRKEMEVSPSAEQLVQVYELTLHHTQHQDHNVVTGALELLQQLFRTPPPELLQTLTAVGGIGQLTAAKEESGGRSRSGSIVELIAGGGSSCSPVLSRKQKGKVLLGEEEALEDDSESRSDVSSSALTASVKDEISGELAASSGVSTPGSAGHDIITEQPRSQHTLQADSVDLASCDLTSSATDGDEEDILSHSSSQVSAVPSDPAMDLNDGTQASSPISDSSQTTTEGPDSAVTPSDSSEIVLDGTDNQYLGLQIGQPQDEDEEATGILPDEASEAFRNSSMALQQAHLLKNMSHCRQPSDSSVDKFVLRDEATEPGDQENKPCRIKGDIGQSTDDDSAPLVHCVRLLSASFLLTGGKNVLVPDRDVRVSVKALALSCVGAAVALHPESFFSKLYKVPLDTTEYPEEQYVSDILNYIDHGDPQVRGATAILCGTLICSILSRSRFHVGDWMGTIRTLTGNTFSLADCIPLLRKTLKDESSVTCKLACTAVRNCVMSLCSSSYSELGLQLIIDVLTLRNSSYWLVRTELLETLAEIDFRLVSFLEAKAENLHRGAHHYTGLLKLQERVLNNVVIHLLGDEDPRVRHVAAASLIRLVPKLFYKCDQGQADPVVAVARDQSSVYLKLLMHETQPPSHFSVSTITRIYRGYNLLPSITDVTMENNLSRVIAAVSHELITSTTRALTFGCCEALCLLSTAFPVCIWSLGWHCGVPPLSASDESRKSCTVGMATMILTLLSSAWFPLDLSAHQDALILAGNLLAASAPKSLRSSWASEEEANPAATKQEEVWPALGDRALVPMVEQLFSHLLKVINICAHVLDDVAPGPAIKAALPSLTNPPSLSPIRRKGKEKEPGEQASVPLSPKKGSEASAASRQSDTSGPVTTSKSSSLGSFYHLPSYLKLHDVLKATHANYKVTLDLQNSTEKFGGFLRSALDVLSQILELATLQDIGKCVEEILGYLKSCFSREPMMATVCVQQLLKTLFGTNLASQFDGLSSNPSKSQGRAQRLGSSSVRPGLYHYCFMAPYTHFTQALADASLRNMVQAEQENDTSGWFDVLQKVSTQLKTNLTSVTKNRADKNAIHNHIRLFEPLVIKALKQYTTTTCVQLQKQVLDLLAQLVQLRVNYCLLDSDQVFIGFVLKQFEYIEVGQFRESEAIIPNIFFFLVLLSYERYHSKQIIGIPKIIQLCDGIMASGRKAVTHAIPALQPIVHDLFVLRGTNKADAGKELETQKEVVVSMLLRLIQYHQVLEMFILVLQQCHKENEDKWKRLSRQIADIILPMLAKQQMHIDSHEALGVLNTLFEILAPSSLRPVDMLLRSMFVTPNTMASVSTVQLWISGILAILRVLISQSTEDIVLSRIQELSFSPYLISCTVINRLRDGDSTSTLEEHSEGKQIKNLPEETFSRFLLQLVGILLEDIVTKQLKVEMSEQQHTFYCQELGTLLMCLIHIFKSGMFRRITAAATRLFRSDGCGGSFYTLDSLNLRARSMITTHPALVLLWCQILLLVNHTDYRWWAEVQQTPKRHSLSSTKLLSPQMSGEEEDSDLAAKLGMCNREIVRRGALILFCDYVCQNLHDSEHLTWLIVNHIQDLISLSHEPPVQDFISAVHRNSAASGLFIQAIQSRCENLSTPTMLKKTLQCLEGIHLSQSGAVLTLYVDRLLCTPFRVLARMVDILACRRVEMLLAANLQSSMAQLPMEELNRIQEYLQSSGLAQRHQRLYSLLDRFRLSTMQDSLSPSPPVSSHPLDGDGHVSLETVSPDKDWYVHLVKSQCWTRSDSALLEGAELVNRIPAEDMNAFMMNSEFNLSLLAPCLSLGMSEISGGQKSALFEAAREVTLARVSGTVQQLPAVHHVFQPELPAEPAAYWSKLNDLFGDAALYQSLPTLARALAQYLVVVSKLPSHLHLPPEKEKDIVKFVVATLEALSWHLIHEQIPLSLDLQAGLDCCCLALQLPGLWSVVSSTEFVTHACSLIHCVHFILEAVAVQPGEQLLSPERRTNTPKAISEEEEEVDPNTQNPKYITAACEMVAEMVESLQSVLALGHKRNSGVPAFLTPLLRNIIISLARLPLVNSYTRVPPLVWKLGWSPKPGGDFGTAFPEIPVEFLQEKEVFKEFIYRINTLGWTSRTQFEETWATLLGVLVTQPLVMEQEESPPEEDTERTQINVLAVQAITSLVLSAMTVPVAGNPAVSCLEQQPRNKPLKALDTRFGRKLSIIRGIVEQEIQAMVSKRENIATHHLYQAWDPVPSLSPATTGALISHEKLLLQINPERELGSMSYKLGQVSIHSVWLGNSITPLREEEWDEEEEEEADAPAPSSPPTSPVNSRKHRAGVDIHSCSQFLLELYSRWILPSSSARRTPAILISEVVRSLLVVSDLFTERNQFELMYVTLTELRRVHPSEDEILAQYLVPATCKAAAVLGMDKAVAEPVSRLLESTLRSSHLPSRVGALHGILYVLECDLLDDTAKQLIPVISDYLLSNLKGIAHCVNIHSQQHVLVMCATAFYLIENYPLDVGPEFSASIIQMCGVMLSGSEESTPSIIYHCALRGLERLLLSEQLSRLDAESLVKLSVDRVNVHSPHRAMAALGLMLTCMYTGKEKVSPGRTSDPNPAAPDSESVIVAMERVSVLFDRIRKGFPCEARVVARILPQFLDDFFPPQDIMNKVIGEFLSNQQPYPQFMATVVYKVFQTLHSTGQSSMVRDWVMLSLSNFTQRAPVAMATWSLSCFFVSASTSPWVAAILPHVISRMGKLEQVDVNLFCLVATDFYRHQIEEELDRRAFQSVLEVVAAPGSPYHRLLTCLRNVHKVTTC
Chain of HTTQ54-HAP40 (P23610 whole entry, chain 2 of 2): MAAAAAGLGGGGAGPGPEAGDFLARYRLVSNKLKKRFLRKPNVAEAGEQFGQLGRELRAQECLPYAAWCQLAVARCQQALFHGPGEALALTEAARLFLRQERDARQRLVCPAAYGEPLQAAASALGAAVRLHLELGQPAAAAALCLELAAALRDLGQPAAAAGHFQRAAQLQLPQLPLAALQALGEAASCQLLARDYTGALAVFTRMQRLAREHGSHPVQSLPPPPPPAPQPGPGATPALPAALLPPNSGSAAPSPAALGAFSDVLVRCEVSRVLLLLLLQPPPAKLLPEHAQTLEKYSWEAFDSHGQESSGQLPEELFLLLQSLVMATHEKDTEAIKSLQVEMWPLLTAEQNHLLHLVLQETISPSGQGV

In the case of “HHL1-AK-Bio: biotinylated derivative of HHL1 with a 2 amino acid linker (AK-Bio) ({CH2CO}-YLIRSSFNWFVFVEVPCAK; thioether N-17 (inferred); also: biotin joined via 2 amino acid linker AK)”, in test [1], the “Capture of endogenous HTT by immobilized biotinylated macrocycle” value is “no detectable binding”.
On the same count and under the same terms, as for “HD4-AK-Bio: biotinylated derivative of HD4 with a 2 amino acid linker (AK-Bio) (Ac-[dY]DIWCETNKQTGILVLCAK; thioether (positions not given here); also: thioether to downstream Cys, which of Cys5/Cys17 not given here, biotin joined via AK linker, site not given here)”, the entry is “captured”.
As for `CC[C@H](C)[C@H](NC(=O)CNC(=O)[C@@H](NC(=O)[C@H](CCC(N)=O)NC(=O)[C@H](CCCCN)NC(=O)[C@H](CC(N)=O)NC(=O)[C@@H](NC(=O)[C@H](CCC(=O)O)NC(=O)[C@@H]1CSCC(=O)N[C@H](Cc2ccc(O)cc2)C(=O)N[C@@H](CC(=O)O)C(=O)N[C@@H]([C@@H](C)CC)C(=O)N[C@@H](Cc2c[nH]c3ccccc23)C(=O)N1)[C@@H](C)O)[C@@H](C)O)C(=O)N[C@@H](CC(C)C)C(=O)N[C@H](C(=O)N[C@@H](CC(C)C)C(=O)N[C@@H](CS)C(N)=O)C(C)C` [HD4] ({CH2CO}-[dY]DIWCETNKQTGILVLC-NH2; thioether N-5), the “Thermal shift (ΔTm) of HTTQ23-HAP40 induced by macrocycle” value in test [2] is reported as “No significant thermal effects”. Also, the “Enrichment of HAP40 in macrocycle pulldowns” value in test [3] is “consistently enriched”.
For the molecule “HHL1-PEG11-Bio: biotinylated derivative of HHL1 with a PEG11 spacer ({CH2CO}-YLIRSSFNWFVFVEVPC; thioether N-17 (inferred); also: biotin joined via PEG11 spacer)”, the “Capture of endogenous HTT by immobilized biotinylated macrocycle” value in test [1] is recorded as “no detectable binding”.
Still for that read-out and setting: the same measure for “HL2-PEG11-Bio: biotinylated derivative of HL2 with a PEG11 spacer ({CH2CO}-YTARYLTLGTLHYKC; thioether N-15 (inferred); also: biotin joined via PEG11 spacer)”: “captured”; for “HL5-PEG11-Bio: biotinylated derivative of HL5 with a PEG11 spacer ({CH2CO}-YTHFQVAPWIQSLC; thioether N-14 (inferred); also: biotin joined via PEG11 spacer)”: “captured”; for “HHD3-AK-Bio: biotinylated derivative of HHD3 with a 2 amino acid linker (AK-Bio) ({CH2CO}-[dY]TRHWQNNWWILYHEFCAK; thioether N-17 (inferred); also: biotin joined via AK linker, site not given here)”: “captured”.

B1: HL2 (peptide)
peptide: {CH2CO}-YTARYLTLGTLHYKC
modifications: thioether N-15 (inferred)
In turn, B1 had a Kd in test [4] of 2 nM. That is a single-digit nanomolar value.

B2: FITC-labeled HHL1 (peptide)
peptide: {CH2CO}-YLIRSSFNWFVFVEVPC-{FITC′}
modifications: thioether N-17 (inferred); not fully specified
Consider B2, for which binding in test [5] was characterised by a dissociation constant (Kd) of 2.6 nM.

B3: FITC-labeled HHD3 (peptide)
peptide: {CH2CO}-[dY]TRHWQNNWWILYHEFC-{FITC′}
modifications: thioether N-17 (inferred); not fully specified
In test [5], B3 came in with a Kd of 2.6 nM.

B4: FITC-labeled HL2 (peptide)
peptide: {CH2CO}-YTARYLTLGTLHYKC-{FITC′}
modifications: thioether N-15 (inferred); not fully specified
Molecule B4 showed a Kd in test [5] of 4 nM.
